According to patent US5580552A, “7-glycosyloxybenzopyran derivative and antiallergic agent containing the derivative as active ingredient” (priority 1994, dated 1996):

How the values were obtained:
[1] = tested on: contact dermatitis induced by picryl chloride; assay: Effect on contact dermatitis induced by picryl chloride in mice; assay type: in vivo; details: Mus musculus, po, 24 h, 50 mg/kg oral, 1 hour before and 16 hours after challenge; 24 hours after challenge; read-out: Inhibition (%) against the increase of ear thickness
In short: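 Mice sensitized on shaved abdomen with 7 mg picryl chloride in acetone, challenged 7 days later with 1% picryl chloride in olive oil on left ear. Compounds given orally at 50 mg/kg in 0.5% CMCNa 1 h before and 16 h after challenge. Ear thickness increase at 24 h vs pre-challenge; inhibition % relative to vehicle.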

[2] = tested on: experimental asthma model (airway resistance); assay: Effect on experimental asthma model in guinea pigs (airway resistance); assay type: in vivo, guinea pigs (male hartley); details: Cavia porcellus, po, 0.5 h, 50 mg/kg oral (TABLE 6)
[3] = tested on: homologous passive cutaneous anaphylaxis (PCA) reaction; assay: Effect on homologous passive cutaneous anaphylaxis (PCA) reaction in rats; assay type: in vivo, rats (male wistar); details: Rattus norvegicus, po, 0.5 h, 50 mg/kg oral, 1 hour before challenge (TABLE 2)
In short: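 Male Wistar rats sensitized intradermally with anti-DNP-As serum; 48 h later compound given orally at 50 mg/kg in 0.5% CMCNa. Challenge 1 h post-dose with i.v. TNP-As plus Evans Blue; extravasated dye measured at 30 min, inhibition versus vehicle group, n=5.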

Compound | inhibition in vivo at 50 mg/kg [1] [%] | inhibition in vivo at 50 mg/kg [2] [%] | inhibition in vivo at 50 mg/kg [3] [%]
O=c1oc2cc(O[C@H]3O[C@H](CO)[C@@H](O)[C@H](O)[C@@H]3O)ccc2c(O)c1OCc1ccccc1 [compound 72] | 42.3 | 52.1 | 45.2
CC1CCC(Oc2c(O)c3ccc(O[C@@H]4O[C@H](CO)[C@H](O)[C@H](O)[C@H]4O)cc3oc2=O)CC1 (stereo partly drawn) [compound 92] | 57.2 | 65.2 | 58.9
CCCCOc1c(O)c(=O)oc2cc(O[C@@H]3O[C@H](CO)[C@H](O)[C@H](O)[C@H]3O)ccc12 [compound 18, 3-hydroxy-4-butoxy-7-(β-D-galactopyranosyloxy)-2H-1-benzopyran-2-one] | 40.2 | 52.3 | 42.5
